Tests used:
μ opioid receptor = biological target: T1, μ opioid receptor (Rattus norvegicus, UniProt P33535); assay: Radioligand binding, [3H]DAMGO competition, rat brain membranes; conditions: rat brain membranes, [3H]DAMGO; read-out: Rat Brain Membrane K1 (nM) μ
T1 construct: tissue Pel-Freeze Biological Inc. (Rogers, Ark.); host or cells: rat whole brain membranes
Protocol: (§1) Two stereoisomerically related racemic mixtures and inclusive enantiomers were evaluated for in vitro opioid receptor affinity in rat brain membranes (μ and δ opioid) and guinea pig cerebellum (κ opioid receptor). Membranes for radioligand binding were prepared from either rat whole brain or guinea pig cerebellum, supplied by Pel-Freeze Biological Inc. (Rogers, Ark.). Tissues were homogenized in 50 mM TRIS (Tris[hydrooxymethyl]aminomethane) buffer (pH 7.4) containing 50 ug/ml soybean trypsin inhibitor, 1 mM EDTA (Ethylenediaminetetraacetic acid), and 100 μM PMSF (Phenylmethylsulfonyl fluoride). The homogenized brain tissues were centrifuged at 500×g for 30 minutes (4° C.) to remove large debris. The supernatant was polytronically sonicated for 10 seconds (P.E. setting of 2, 4° C.). Sucrose solution was then added to a final concentration of 0.35 M using a 10 mM TRIS-Sucrose buffer (pH 7.4) and the brain membranes were then centrifuged at 40,000×g for 30 minutes (4° C.). The membrane pellets were then washed twice in 10 mM TRIS buffer (pH 7.4) containing 50 μg/ml soybean trypsin inhibitor, 1 mM EDTA, and 100 μM PMSF.
(§2) Radioligand binding assays were performed in 10 mM TRIS buffer (pH 7.4) containing 50 μg/ml soybean trypsin inhibitor, 1 mM EDTA, 5 mM MgCl2, and 100 μM PMSF. Tritium-labeled DAMGO (μ), Deltorphin II (δ), or U69593 (κ) purchased from New England Nuclear were used as ligands in competitive experiments (2-3×10^−10 M final concentrations) with non-specific binding defined by 0.5×10^−6 M Naloxone (purchased from SIGMA Chemical Co.). All binding assays were run at room temperature for 90 minutes and then terminated by rapid filtration on GF/C glass fiber filters (Whatman, Hillsboro, Oreg.) with 50 mM TRIS buffer (4° C., pH 7.4) employing a Brandel Semi-automatic Cell Harvester (Model M48, Brandel, Gaithersburg, Md.). The filters were washed twice with 50 mM TRIS buffer (4° C., pH 7.4) and the filters were placed in liquid scintillation cocktail and the bound radioactivity counted on a Beckman LS 6500 scintillation counter. The potency of the compounds in inhibiting the binding of radiolabelled DAMGO (μ), Deltorphin II (δ), or U69593 (κ) was determined from full concentration-effect curves. With the computer program Prism (GraphPad Software Inc., San Diego, Calif.) the IC50 values were determined using a one-site nonlinear regression analysis of the radioligand binding data. The IC50 values were then converted to Ki values using the Cheng-Prusoff equation. (Cheng Y and Prusoff W H (1973) Relationship between the inhibition constant (K1) and the concentration of inhibitor which causes 50 percent inhibition (I50) of a enzymatic reaction. Biochem Pharm 22:3099-3108.)

[1] = biological target: T2, Delta receptor, mouse vas deferens (Mus musculus, UniProt P32300); assay: Mouse vas deferens, inhibition of electrically induced contractions, delta; format: cell-based; conditions: read-out: Mouse Vas Deferens ED50 (nM) δ
T2 construct: Mouse vasa deferentia (MVD), CD-1 strain, Harlan, Raleigh, N.C.) were removed from mice; tissue Harlan, Raleigh, N.C; (animals); host or cells: mouse vas deferens, CD-1 strain
Protocol: The compound of formula (I) and compounds 1, 3, 4, 5 and 6 as identified above, were evaluated for in vitro opioid receptor activity in various receptor systems, including mouse vas deferens (Mouse Vas Deferens ED50), and guinea pig ileum (Guinea Pig Ileum ED50). The assay procedures used for such determinations of receptor activity are set out below.
In vitro bioassays: Mouse vasa deferentia (MVD), CD-1 strain, Harlan, Raleigh, N.C.) were removed from mice and suspended between platinum electrodes with 0.5 g of tension in organ bath chambers containing a modified Mg^++ free Krebs buffer of the following composition (millimolar): NaCl, 117.5; KCl, 4.75; CaCl2, 2.6; KH2PO4, 1.20; NaHCO3, 24.5; and glucose, 11. The buffer was saturated with 95% O2/5% CO2 and kept at 37° C. Tissues were stimulated at supramaximal voltage with 10-Hz pulse trains for 400-msec.; train interval 10 seconds; and 1.0 msec pulse duration at maximal voltage. Delta receptor activity was determined by adding appropriate concentrations of test compound to organ baths and allowing a maximal response before addition of the next higher concentration.
The ED50 values were extrapolated from curves showing the dose concentration plotted against the response (J. A. H. Lord, A. A. Waterfield, J. Hughes, H. W. Kosterlitz, Nature 267, 495, (1977)).

δ opioid receptor = biological target: T3, δ opioid receptor (Rattus norvegicus, UniProt P33533); assay: Radioligand binding, [3H]Deltorphin II competition, rat brain membranes; conditions: read-out: Rat Brain Membrane K1 (nM) δ
T3 construct: tissue Pel-Freeze Biological Inc. (Rogers, Ark.); host or cells: rat whole brain membranes
Protocol: as §1, §2

rats [2] = assay: Respiratory depression by blood gas (pCO2) monitoring in rats; format: in vivo; conditions: rat; for Respiratory Depression % Units Baseline pCO2: 0.30 mg/kg i.v.; for Mortality due to respiratory depression / Effect on blood pCO2 levels in words: i.v.; for Safety Ratio (respiratory depression ED50 divided by analgesia ED50): intravenous
Protocol: (§3) Analgesia was assayed in rats using the tail pinch test with simultaneous monitoring of capillary blood gases (pCO2). During this testing period respiratory depression values were also obtained. Male rats (Wistar Hannover 200-300 g) were anesthetized with 2% isoflurane (J. A. Webster, Inc., Sterling, Mass. The femoral artery was cannulated with PE50 tubing for blood sampling. The external jugular vein was also cannulated with Silastic tubing for drug injection. After surgery, anesthetic gases were removed and the rat was allowed to rest in a plastic restrainer for 60 minutes to establish baseline values of blood gases.
(§4) The compounds 1-6 were administered intravenous. Nociceptive response and respiratory values were obtained for a 1-2 hour period. The femoral artery cannulation was used to draw arterial blood into a syringe pre-wetted with heparin. Samples were then analyzed with a blood gas analyzer (Ph/Gas Analyzer Synthesis 25 Model, Instrumentation Laboratory) to assess respiratory depression effects. The volume of blood taken each time was 0.15 cc. The syringes were capped immediately and the blood gases analyzed within 5 minutes. The blood exposed to air at the tip of the syringe was expelled. The blood was mixed by gentle inversion and an aliquots of 0.10 cc was injected into the blood gas analyzer.
(§5) The gas analyzer was well maintained and operated. Calibrations (low, normal and high) were done at the beginning of every day of testing. The sample lines, co-oximeter and the blood gas electrode were cleaned regularly at the end of every day of testing. Hematocrit calibration (high and low) was scheduled on a weekly basis and tubing, sample and pinch valve were replaced on a monthly basis.
(§6) The ED50 values for analgesia potency and respiratory depression were determined to calculate the safety or therapeutic ratio, which is defined as the respiratory depression ED50 divided by analgesia ED50.

[3] = as above; format: in vivo; conditions: male, Wistar Hannover, in vivo; rat, intravenous
Protocol: as §3, §4, §5, §6

rats [4] = assay: Tail pinch test for analgesia in rats; format: in vivo; conditions: rat; for Analgesia (delay of response to tail pinch): 0.30 mg/kg i.v., cutoff 20 sec; for ED50: intravenous, 20 sec cutoff; for ED50 / Analgesic effect in words: tail pinch; for Analgesic effect in words: i.v., FIGS. 1-6
Protocol: as §3, §4
An artery clamp was placed on the tail (one inch from the tip of the tail) for a short duration until an escape response occurred (i.e. tail-flick or vocalization). The escape response latency was recorded by means of a stopwatch. A cutoff time of 20 sec. was used to prevent unnecessary tissue damage. […] The elapsed time to elicit a pain response was recorded as the tail pinch latency in seconds. Blood gases were monitored at approximately the same time points as the tail pinch test.
as §6

[5] = biological target: T4, Mu receptor, mouse vas deferens (Mus musculus, UniProt P42866); assay: Mouse vas deferens, inhibition of electrically induced contractions, mu (with TIPP and nor-BNI); format: cell-based; conditions: in presence of 3 μM TIPP and 15 nM nor-BNI; read-out: Mouse Vas Deferens ED50 (nM) μ
T4 construct: Mouse vasa deferentia (MVD), CD-1 strain, Harlan, Raleigh, N.C.) were removed from mice; tissue Harlan, Raleigh, N.C; (animals); host or cells: mouse vas deferens, CD-1 strain

κ opioid receptor = biological target: T5, κ opioid receptor (Cavia porcellus, UniProt P41144); assay: Radioligand binding, [3H]U69593 competition, guinea pig cerebellum membranes; conditions: read-out: Guinea Pig Brain Membrane K1 (nM) κ
T5 construct: tissue Pel-Freeze Biological Inc. (Rogers, Ark.); host or cells: guinea pig cerebellum membranes
Protocol: as §1, §2

C=CCN1C[C@H](C)N([C@@H](c2ccsc2)c2cccc(O)c2)C[C@H]1C [Compound 5, (+)-3-((R)-((2S,5R)-4-allyl-2,5-dimethyl-1-piperazinyl)(3-thienyl)methyl)phenol]
Ki (μ opioid receptor): 0.75 nM
EC50 [1]: 1.3 nM
Ki (δ opioid receptor): 113 nM
Respiratory Depression % Units Baseline pCO2 (rats [2]; 4 min.): 120%
Respiratory Depression % Units Baseline pCO2 (rats [2]; 8 min.): 78%
Respiratory Depression % Units Baseline pCO2 (rats [2]; 32 min.): 45%
Mortality due to respiratory depression (rats [2]): several of the test subjects died
Safety Ratio (respiratory depression ED50 divided by analgesia ED50) (rats [2]): 2.2
ED50 [3]: 0.067 mg/kg
Analgesia (delay of response to tail pinch) (rats [4]; 4 min.): 20 s
Analgesia (delay of response to tail pinch) (rats [4]; 8 min.): 20 s
Analgesia (delay of response to tail pinch) (rats [4]; 32 min.): 20 s
ED50 (rats [4]): 0.03 mg/kg
EC50 [5]: 79.3 nM
Ki (κ opioid receptor): 1.73 nM

C=CCN1C[C@@H](C)N([C@H](c2ccsc2)c2cccc(O)c2)C[C@@H]1C [Compound 6, (−)3-((S)-((2R,5S)-4-allyl-2,5-dimethyl-1-piperazinyl)(3-thienyl)methyl)phenol]
Ki (μ opioid receptor): 60 nM
EC50 [1]: 282 nM
Ki (δ opioid receptor): 13 nM
Respiratory Depression % Units Baseline pCO2 (rats [2]; 4 min.): 0%
Respiratory Depression % Units Baseline pCO2 (rats [2]; 8 min.): 0%
Respiratory Depression % Units Baseline pCO2 (rats [2]; 32 min.): 0%
Effect on blood pCO2 levels in words (rats [2]): no effect on blood pCO2 levels
ED50 [3]: > 6 mg/kg
Analgesia (delay of response to tail pinch) (rats [4]; 4 min.): 0 s
Analgesia (delay of response to tail pinch) (rats [4]; 8 min.): 0 s
Analgesia (delay of response to tail pinch) (rats [4]; 32 min.): 0 s
Analgesic effect in words (rats [4]): no measurable analgesic effect
ED50 (rats [4]): > 6 mg/kg
EC50 [5]: > 1000 nM
Ki (κ opioid receptor): 16 nM

C=CCN1C[C@@H](C)N([C@@H](c2ccsc2)c2cccc(O)c2)C[C@@H]1C (relative stereo) [Compound 1, (±)3-((R*)-((2R*,5S*)-4-allyl-2,5-dimethyl-1-piperazinyl)(3-thienyl)methyl)phenol]
Analgesic effect in words (rats [4]): only limited analgesia for a short time

C=CCN1C[C@H](C)N([C@@H](c2ccsc2)c2cccc(O)c2)C[C@H]1C (racemic) [Compound 4, (±)3-((R*)-((2S*,5R*)-4-allyl-2,5-dimethyl-1-piperazinyl)(3-thienyl)methyl)phenol]
Ki (μ opioid receptor): 0.18 nM
EC50 [1]: 58 nM
Ki (δ opioid receptor): 14.9 nM
Respiratory Depression % Units Baseline pCO2 (rats [2]; 4 min.): 117%
Respiratory Depression % Units Baseline pCO2 (rats [2]; 8 min.): 91%
Respiratory Depression % Units Baseline pCO2 (rats [2]; 32 min.): 43%
Mortality due to respiratory depression (rats [2]): several of the test subjects died
Safety Ratio (respiratory depression ED50 divided by analgesia ED50) (rats [2]): 2.4
ED50 [3]: 0.12 mg/kg
Analgesia (delay of response to tail pinch) (rats [4]; 4 min.): 20 s
Analgesia (delay of response to tail pinch) (rats [4]; 8 min.): 20 s
Analgesia (delay of response to tail pinch) (rats [4]; 32 min.): 10 s
ED50 (rats [4]): 0.05 mg/kg
EC50 [5]: 170 nM
Ki (κ opioid receptor): 2.34 nM

C=CCN1C[C@@H](C)N([C@@H](c2ccsc2)c2cccc(O)c2)C[C@@H]1C [Compound 3, (+)3-((R)-((2R,5S)-4-allyl-2,5-dimethyl-1-piperazinyl)(3-thienyl)methyl)phenol]
Ki (μ opioid receptor): 658 nM
EC50 [1]: > 1000 nM
Ki (δ opioid receptor): 744 nM
Respiratory Depression % Units Baseline pCO2 (rats [2]; 4 min.): 0%
Respiratory Depression % Units Baseline pCO2 (rats [2]; 8 min.): 0%
Respiratory Depression % Units Baseline pCO2 (rats [2]; 32 min.): 0%
Effect on blood pCO2 levels in words (rats [2]): no effect on blood pCO2 levels
ED50 [3]: > 6 mg/kg
Analgesia (delay of response to tail pinch) (rats [4]; 4 min.): 0 s
Analgesia (delay of response to tail pinch) (rats [4]; 8 min.): 0 s
Analgesia (delay of response to tail pinch) (rats [4]; 32 min.): 0 s
Analgesic effect in words (rats [4]): no measurable analgesic effect
ED50 (rats [4]): > 6 mg/kg
EC50 [5]: > 1000 nM
Ki (κ opioid receptor): 100 nM

C=CCN1C[C@@H](C)N([C@@H](c2ccsc2)c2cccc(O)c2)C[C@@H]1C (racemic) [Compound 1, (±)3-((R*)-((2R*,5S*)-4-allyl-2,5-dimethyl-1-piperazinyl)(3-thienyl)methyl)phenol]
Ki (μ opioid receptor): 0.36 nM
EC50 [1]: 30 nM
Ki (δ opioid receptor): 1.29 nM
Respiratory Depression % Units Baseline pCO2 (rats [2]; 4 min.): 21%
Respiratory Depression % Units Baseline pCO2 (rats [2]; 8 min.): 25%
Respiratory Depression % Units Baseline pCO2 (rats [2]; 32 min.): 7%
Safety Ratio (respiratory depression ED50 divided by analgesia ED50) (rats [2]): 4.7
ED50 [3]: 0.98 mg/kg
Analgesia (delay of response to tail pinch) (rats [4]; 4 min.): 19.5 s
Analgesia (delay of response to tail pinch) (rats [4]; 8 min.): 10.5 s
Analgesia (delay of response to tail pinch) (rats [4]; 32 min.): 1 s
ED50 (rats [4]): 0.21 mg/kg
EC50 [5]: 881 nM
Ki (κ opioid receptor): 1.67 nM
